Source: PMC9812923 (2022)

Key:
[1] = system: GA3 (DNA, G4) AGGGAAAAGGGGAGGGAAAAGGGGA; experiment: UV-Vis melting, 295 nm; details: 100 mM K+; 10 mM lithium cacodylate pH 7.2; 2 equivalents NMM, ~4 μM DNA
[2] = system: GA2 (DNA, G4) GAGGGAGGGAAAAGGGGAGGGA; experiment: UV-Vis melting, 295 nm; details: 100 mM K+; 10 mM lithium cacodylate pH 7.2; 2 equivalents NMM, ~4 μM DNA
[3] = system: GA2 (DNA, G4) GAGGGAGGGAAAAGGGGAGGGA; experiment: UV-Vis titration, SVD; details: 5 mM K+, 95 mM Li+; 10 mM lithium cacodylate pH 7.2, 20 °C; 1:1 model
[4] = system: GA1 (DNA, G4) GAGGGAGGGAGGGAAAAGGGGA; experiment: UV-Vis melting, 295 nm; details: 100 mM K+; 10 mM lithium cacodylate pH 7.2; 2 equivalents NMM, ~4 μM DNA

**Q.** For CCc1c(C)c2cc3nc(cc4nc(cc5c(CC)c(C)c(cc1[nH]2)n5C)C(C)=C4CCC(=O)O)C(CCC(=O)O)=C3C, which ΔTm [1] is on record?
**A.** Its ΔTm is 7.0 ± 1.7 °C.

**Q.** And the ΔTm [2]?
**A.** The ΔTm was 13.1 ± 0.8 °C.

**Q.** And the Ka [3]?
**A.** The Ka was 1.4 ± 0.1 µM⁻¹.

**Q.** And the ΔTm [4]?
**A.** The ΔTm was 14.6 ± 1.1 °C.
